Source: patent US10683487B2, “Myrmecridium flexuosum NUK-21, novel lactose oxidase isolated from Myrmecridium flexuosum NUK-21, and method for conversion of lactose into lactobionic acid by novel lactose oxidase” (NATIONAL UNIVERSITY OF KAOHSIUNG, priority 2017, dated 2020)
Where two headings read alike, the source gives them in different places.

Tests used:
[1] = tested on: lactose oxidase of the NUK-21 strain; test: Effects of chemicals on enzyme activity (dissolved oxygen assay); type: biochemical, Myrmecridium flexuosum NUK-21
Experimental: The purified enzyme was added to A buffer containing 1 mM of various chemical solution and incubated in a water bath at 30° C. for 1 hour. Dissolved oxygen assay was used to determine the enzyme activity of lactose oxidase.

[2] = tested on: NUK-21 strain; type: cell-based, Myrmecridium flexuosum NUK-21
[3] = tested on: lactose oxidase of the NUK-21 strain; type: biochemical, Myrmecridium flexuosum NUK-21
[4] = tested on: lactose oxidase of the NUK-21 strain; test: Substrate specificity of lactose oxidase (OD500 nm peroxidase chromogen assay); type: biochemical, Myrmecridium flexuosum NUK-21
Experimental: Fifty mM of various buffers with different pH values were prepared, including CH3COOH—CH3COONa (pH 4.5-5.5), K2HPO4—NaH2PO4 (pH 5.5-8.0), Tris-HCl (pH 7.0-9.0), and Na2CO3—NaHCO3 (pH 9.0-11). Enzyme activity was determined by peroxidase chromogen method (Clin Chem, 1974; 20:470-475). The substrate, buffer and enzyme were premixed and reacted for 2 minutes, and then 4-aminoantipyrine (4-AA) coloring solution was added for reaction. A spectrophotometer was used to detect the absorbance of OD500 nm at room temperature (detection at every 15 seconds for a total of 90 seconds). The principle of the 4-AA assay is that the lactose oxidase oxidized lactose to lactobionic acid, which reduces dissolved oxygen to hydrogen peroxide, and the hydrogen peroxide, phenol, and 4-AA were catalyzed by the peroxidase to produce a red quinoneimine structure and show a stable signal at OD 500 nm.
The enzyme activity was defined as the enzyme concentration that produces 1 μmole hydrogen peroxide per minute. […] Calculation of enzyme activity: unit/ml=(ΔA500 nm/t)×(Vt/6.8)×(1/Ve)×n, in which ΔA500 nm:A500 nm variation in t minutes, 6.8: absorption coefficient of chromogenic material (mM^−1 cm^−1), Vt: total reaction volume, Ve: volume of enzyme was added, and n: fold of dilution of enzyme solution.
A spectrophotometer was used to detect the absorbance of OD500 nm at room temperature (detection at every 15 seconds for a total of 90 seconds), and the enzyme activity was determined.

[5] = tested on: carbohydrate oxidases; conditions: cited from earlier work
[6] = tested on: carbohydrate oxidases from different strains; conditions: cited from earlier work
[7] = metal ions 0.01%, 4% wheat bran medium, 30° C., 4 days
[8] = metal ions 1 mM, 30° C., 1 hour, 0.7 mM lactose

In the case of c1cnc2c(c1)ccc1cccnc12 [1,10-phenanthroline], the Relative activity ([1]; chemical 1 mM, 30° C., 1 hour) is reported as 98.8%.

O=C(CBr)c1ccc(Br)cc1 [2,4′-dibromoacetophenone] gave a Relative activity ([1]; chemical 1 mM, 30° C., 1 hour) of 99%.

For O=[N+]([O-])[O-].[Ag+] [AgNO3], the Enzyme activity [2, 7] was 0.28 unit/ml and the Relative activity [3, 8] was 107.9%.

O=S(=O)([O-])[O-].O=S(=O)([O-])[O-].O=S(=O)([O-])[O-].[Al+3].[Al+3] [Al2(SO4)3] showed an Enzyme activity [2, 7] of 0.37 unit/ml.

[Ca+2].[Cl-].[Cl-] [CaCl2] showed an Enzyme activity [2, 7] of 0.20 unit/ml and a Relative activity [3, 8] of 109.5%.

In the case of O=S(=O)([O-])[O-].[Cd+2] [CdSO4], the Enzyme activity [2, 7] is reported as 0.42 unit/ml and the Relative activity [3, 8] is reported as 100%.

Molecule O=C[C@H](O)[C@@H](O)[C@H](O[C@@H]1O[C@H](CO)[C@@H](O)[C@H](O)[C@H]1O)[C@H](O)CO [Cellobiose] has a Relative activity ([4]; 0.7 mM substrate) of 83.4% and a Relative activity ([4]; 7 mM substrate) of 81.7%.

With [Cl-].[Cl-].[Co+2] [CoCl2] the Enzyme activity [2] was 0.26 unit/ml and the Relative activity [3] was 110.2%.

With O=S(=O)([O-])[O-].[Cu+2] [CuSO4] the Enzyme activity [2, 7] was 0.61 unit/ml and the Relative activity [3, 8] was 96.8%.

For O=C(O)CN(CCN(CC(=O)O)CC(=O)O)CC(=O)O [EDTA], the Relative activity [1] was 136.3% and the “effect on enzyme activity (in words)” value [1] was “activated”.

Work on O=S(=O)([O-])[O-].O=S(=O)([O-])[O-].O=S(=O)([O-])[O-].[Fe+3].[Fe+3] [Fe2(SO4)3] yielded an Enzyme activity [2, 7] of 0.25 unit/ml.

[Cl][Fe]([Cl])[Cl] [FeCl3] showed an Enzyme activity [2, 7] of 0.27 unit/ml and a Relative activity [3, 8] of 103.2%.

O=S(=O)([O-])[O-].[Fe+2] [FeSO4] showed a Relative activity [3, 8] of 61.1% and a Relative activity ([3]; metal ions 1 mM, 30° C., 1 hour, 0.7 mM lactose, listed as Fe^2+) of 61.3%.

For O=C(CO)[C@@H](O)[C@H](O)[C@H](O)CO [Fructose], the Relative activity ([4]; 0.7 mM substrate) was 0% and the Relative activity ([4]; 7 mM substrate) was 0%.

In the case of O=C[C@H](O)[C@@H](O)[C@@H](O)[C@H](O)CO [Galactose], the Relative activity ([4]; 0.7 mM substrate) is reported as 0% and the Relative activity ([4]; 7 mM substrate) is reported as 1.8%.

OO [H2O2] gave a Relative activity ([1]; chemical 1 mM, 30° C., 1 hour) of 100%.

Molecule [Cl][Hg][Cl] [HgCl2] has an Enzyme activity [2, 7] of 0.02 unit/ml and a Relative activity [3, 8] of 153.8%.

For O=S(=O)([O-])[O-].[K+].[K+] [K2SO4], the Enzyme activity [2, 7] was 0.26 unit/ml.

Work on OC[C@H]1O[C@@H](O[C@H]2[C@H](O)[C@@H](O)C(O)O[C@@H]2CO)[C@H](O)[C@@H](O)[C@H]1O (stereo partly shown) [Lactose] yielded a Relative activity ([4]; 0.7 mM substrate) of 100% and a Relative activity ([4]; 7 mM substrate) of 100%.

In the case of OC[C@H]1O[C@H](O[C@H]2[C@H](O)[C@@H](O)[C@H](O)O[C@@H]2CO)[C@H](O)[C@@H](O)[C@@H]1O [Maltose], the Relative activity ([4]; 0.7 mM substrate) is reported as 4.1% and the Relative activity ([4]; 7 mM substrate) is reported as 24.8%.

With O=S(=O)([O-])[O-].[Mn+2] [MnSO4] the Enzyme activity [2, 7] was 0.37 unit/ml.

With CCN1C(=O)C=CC1=O [N-ethylmaleimide] the “effect on enzyme activity (in words)” value ([1]; chemical 1 mM) was “activated” and the Relative activity ([1]; chemical 1 mM, 30° C., 1 hour) was 139.5%.

Work on O=S(=O)([O-])[O-].[Na+].[Na+] [Na2SO4] yielded an Enzyme activity [2, 7] of 0.26 unit/ml.

In the case of [N-]=[N+]=[N-].[Na+] [NaN3], the “effect on enzyme activity (in words)” value ([1]; chemical 1 mM) is reported as “activated” and the Relative activity ([1]; chemical 1 mM, 30° C., 1 hour) is reported as 131.3%.

Molecule [Cl][Ni][Cl] [NiCl2] has an Enzyme activity [2, 7] of 0.43 unit/ml.

Molecule O=S(=O)([O-])[O-].[Ni+2] [NiSO4] has a Relative activity [3, 8] of 100%.

Molecule O=S(=O)(F)Cc1ccccc1 [PMSF] has a Relative activity ([1]; chemical 1 mM, 30° C., 1 hour) of 104.9%.

In the case of [Cl][Pb][Cl] [PbCl2], the Enzyme activity [2, 7] is reported as 0.29 unit/ml and the Relative activity [3, 8] is reported as 89.7%.

Molecule [Cl][Sn][Cl] [SnCl2] has a Relative activity [3, 8] of 61.3% and a Relative activity ([3]; metal ions 1 mM, 30° C., 1 hour, 0.7 mM lactose, listed as Sn^2+) of 89.7%.

[Cl][Sn]([Cl])([Cl])[Cl] [SnCl4] gave an Enzyme activity [2, 7] of 0.32 unit/ml.

In the case of OC[C@@H](O)[C@@H](O)[C@H](O)[C@@H](O)CO [Sorbitol], the Relative activity ([4]; 0.7 mM substrate) is reported as 0% and the Relative activity ([4]; 7 mM substrate) is reported as 0%.

Work on OC[C@H]1O[C@@](CO)(O[C@H]2O[C@H](CO)[C@@H](O)[C@H](O)[C@H]2O)[C@@H](O)[C@@H]1O [Sucrose] yielded a Relative activity ([4]; 0.7 mM substrate) of 0% and a Relative activity ([4]; 7 mM substrate) of 0%.

Molecule OC[C@@H](O)[C@H](O)[C@@H](O)CO [Xylitol] has a Relative activity ([4]; 0.7 mM substrate) of 0% and a Relative activity ([4]; 7 mM substrate) of 0%.

Work on O=C[C@H](O)[C@@H](O)[C@H](O)CO [Xylose] yielded a Relative activity ([4]; 0.7 mM substrate) of 0% and a Relative activity ([4]; 7 mM substrate) of 0%.

O=S(=O)([O-])[O-].[Zn+2] [ZnSO4] showed an Enzyme activity [2, 7] of 0.22 unit/ml.

With O=C(O)[C@H](O)[C@@H](O)[C@H](O[C@@H]1O[C@H](CO)[C@H](O)[C@H](O)[C@H]1O)[C@H](O)CO [lactobionic acid] the Relative activity ([4]; 0.7 mM substrate) was 0% and the Relative activity ([4]; 7 mM substrate) was 0%.

B1: Glucooligosaccharide oxidase: carbohydrate oxidase from Acremonium strictum (protein, UniProt Q6PW77 26-499, looked up)
Glucooligosaccharide oxidase: NSINACLAAADVEFHEEDSEGWDMDGTAFNLRVDYDPAAIAIPRSTEDIAAAVQCGLDAGVQISAKGGGHSYGSYGFGGEDGHLMLELDRMYRVSVDDNNVATIQGGARLGYTALELLDQGNRALSHGTCPAVGVGGHVLGGGYGFATHTHGLTLDWLIGATVVLADASIVHVSETENADLFWALRGGGGGFAIVSEFEFNTFEAPEIITTYQVTTTWNRKQHVAGLKALQDWAQNTMPRELSMRLEINANALNWEGNFFGNAKDLKKILQPIMKKAGGKSTISKLVETDWYGQINTYLYGADLNITYNYDVHEYFYANSLTAPRLSDEAIQAFVDYKFDNSSVRPGRGWWIQWDFHGGKNSALAAVSNDETAYAHRDQLWLWQFYDSIYDYENNTSPYPESGFEFMQGFVATIEDTLPEDRKGKYFNYADTTLTKEEAQKLYWRGNLEKLQAIKAKYDPEDVFGNVVSVEPIA
For B1, the “optimum pH” value [5] is given as 10, the Substrate specificity ([6]; cellobiose) is given as 120% and the Substrate specificity ([6]; lactose) is given as 100%. The Km ([6]; substrate cellobiose) was 120 µM and the Km ([6]; substrate lactose) was 380 µM.
